From US20250353873A1, “COMPOUNDS AND METHODS FOR MODULATING APOE EXPRESSION” (Ionis Pharmaceuticals, Inc., priority 2024, published 2025)
Strand notation (5' to 3'): a small letter for the sugar, then the base; units joined by * are phosphorothioate-linked, units joined directly phosphodiester-linked; [ ] holds rarer units or linkages, { } end groups; capitals alone tell only the bases. [ms] = mesyl phosphoramidate linkage; k = constrained ethyl (cEt); [5mC] = 5-methylcytosine; d = 2'-deoxy (DNA)

How the values were obtained:
human APOE RNA [1] = test: Duration of action study in APOE C57BL/6NTac-Apoeem7250 knock-in mice (Example 16); format: in vivo; conditions: 300 μg ICV
Experimental: Modified oligonucleotides described above were tested in the APOE C57BL/6NTac-Apoeem7250 knock-in mouse model described above.
APOE C57BL/6NTac-Apoeem7250 knock-in mice were divided into groups of 2-4 mice each. Each mouse received a single intracerebroventricular (ICV) bolus of 300 μg of modified oligonucleotide. A group of 2-4 mice received a single ICV bolus with PBS as a negative control.
Mice were sacrificed at various timepoints as indicated in the table below and RNA was extracted from cortical brain tissue and spinal cord for quantitative real-time RT-PCR analysis of RNA expression of APOE using primer probe set RTS3073 (described herein above). APOE RNA levels were normalized to mouse Ppia. Mouse Ppia was amplified using primer probe set m_cyclo24 (described herein above). Results are presented as percent human APOE RNA relative to the amount of human APOE RNA in PBS treated animals, (% control). Each experiment is identified in separate tables below.

human APOE RNA [2] = test: Dose-dependent inhibition of human APOE RNA in HepG2 cells, electroporation, 50,000 cells per well, RT-PCR normalized to GAPDH (Example 4, Tables 8-10); format: cell-based; conditions: HepG2, electroporation, 24-hour treatment
Procedure, shortened: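 HepG2 cells, 50,000 per well, electroporated with modified oligonucleotide at various concentrations. APOE RNA quantified by RT-PCR with human primer probe set RTS3073, normalized to GAPDH. Values are percent APOE RNA relative to untreated control cells.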

human APOE RNA [3] = test: Activity in APOE C57BL/6NTac-Apoeem7250 knock-in mice, single ICV bolus, 4 weeks (Example 10); format: in vivo; conditions: single ICV bolus 300 μg, 4 weeks post treatment, normalized to mouse Ppia
Procedure, shortened: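 Knock-in mice (2–4 per group) received one 300 μg ICV bolus of oligonucleotide or PBS. After four weeks, human APOE RNA in cortex and spinal cord measured by RT-qPCR (primer probe set RTS3073), normalized to mouse Ppia, expressed as % of PBS controls.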

Substance	APOE RNA (% control) Cortex (human APOE RNA [1]; 112 days post-dose)	APOE RNA (% control) Cortex (human APOE RNA [1]; 140 days post-dose)	APOE RNA (% control) Spinal Cord (human APOE RNA [1]; 112 days post-dose)	APOE RNA (% control) Spinal Cord (human APOE RNA [1]; 140 days post-dose)	APOE RNA (% UTC) (human APOE RNA [2]; 5 nM)	APOE RNA (% UTC) (human APOE RNA [2]; 13 nM)	APOE RNA (% UTC) (human APOE RNA [2]; 33 nM)	APOE RNA (% UTC) (human APOE RNA [2]; 82 nM)	APOE RNA (% UTC) (human APOE RNA [2]; 205 nM)	APOE RNA (% UTC) (human APOE RNA [2]; 512 nM)	APOE RNA (% UTC) (human APOE RNA [2]; 1,280 nM)	APOE RNA (% UTC) (human APOE RNA [2]; 3,200 nM)	APOE RNA (% UTC) (human APOE RNA [2]; 8,000 nM)	APOE RNA (% UTC) (human APOE RNA [2]; 20,000 nM)	IC50 (human APOE RNA [2])	APOE RNA (% control) Cortex (human APOE RNA [3])	APOE RNA (% control) Spinal Cord (human APOE RNA [3])
1746790 (k[5mC]*dT[ms]kT*dG[ms]dG[ms]kT*dG[ms]dA[ms]dA[ms]dT*d[5mC]*dT*dT*dT*dA[ms]dT*kT*kA*dA[ms]kA; antisense) [Compound 1746790]	75 % control	77 % control	62 % control	108 % control	104 % UTC	133 % UTC	94 % UTC	112 % UTC	89 % UTC	63 % UTC	20 % UTC	24 % UTC	15 % UTC	8 % UTC	750 nM	53 % control	61 % control
1753989 (k[5mC]*dT[ms]kT*dG[ms]kG*dT*dG[ms]dA[ms]dA[ms]dT*d[5mC]*dT*dT*dT*dA[ms]kT*dT[ms]kA*dA[ms]kA; antisense) [Compound 1753989]	58 % control	72 % control	117 % control	79 % control	113 % UTC	108 % UTC	102 % UTC	79 % UTC	94 % UTC	76 % UTC	49 % UTC	33 % UTC	25 % UTC	16 % UTC	1670 nM	54 % control	49 % control
1746803 (k[5mC]*dT[ms]dT[ms]kG*dG[ms]kT*dG[ms]dA[ms]dA[ms]dT*d[5mC]*dT*dT*dT*dA[ms]dT*kT*dA[ms]kA*kA; antisense) [Compound 1746803]	54 % control	73 % control	74 % control	82 % control	93 % UTC	83 % UTC	84 % UTC	114 % UTC	68 % UTC	61 % UTC	31 % UTC	29 % UTC	22 % UTC	39 % UTC	1100 nM	51 % control	39 % control
1746801 (k[5mC]*dT[ms]dT[ms]kG*kG*dT[ms]dG[ms]dA[ms]dA[ms]dT*d[5mC]*dT*dT*dT*dA[ms]dT*kT*dA[ms]kA*kA; antisense) [Compound 1746801]	47 % control	67 % control	70 % control	138 % control	93 % UTC	98 % UTC	114 % UTC	99 % UTC	76 % UTC	56 % UTC	33 % UTC	11 % UTC	14 % UTC	2 % UTC	670 nM	58 % control	44 % control
